Read-outs that look alike come from different tables or passages of the source.
Legend:
[1] = molecular target: T1, D-2 dopamine receptor (Rattus norvegicus, UniProt P61169); experiment: [^3 H] Spiroperidol binding inhibition (D-2 dopamine receptor, homogenized limbic brain tissue); conditions: 1 μM
T1 construct: from tissue; host or cells: homogenized limbic brain tissue
Description: The results of this testing with compounds representative of the invention whose production is exemplified, infra, are as follows: […]

[2] = tested on: conditioned avoidance responding; experiment: Conditioned avoidance, Discrete Trial (lever press); format: in vivo, rat (male CD, Charles River); conditions: for Conditioned Avoidance, Discrete Trial AB50: p.o.
Description: (§1) The antipsychotic properties of the compounds of this invention were established by standard pharmacologically accepted procedures involving conditioned avoidance studies in which trained male CD rats (Charles River), 400-450 g. body weight are exposed to a fifteen second warning tone (conditioned stimulus) continued for an additional fifteen seconds accompanied by electric shock. The rat can avoid the electric shock by jumping to an exposed shelf (shelf-jump response). A response during the initial warning tone is considered an avoidance response, while a response during shock delivery is considered as escape response. The shelf-jump response test procedure follows that of Herman et al., Comm. in Psychopharm., 3, pp. 165-171 (1979). The compounds of this invention were tested at a single dose (40 mg./kg. i.p.) in this procedure and were rated relative to their inhibition of conditioned avoidance responding. A similar test procedure (Discrete Trial) in which a lever press was substituted for a shelf-jump was used to establish the oral (p.o.) activity of the test compounds. Orally active compounds were tested over a full dose range and the Avoidance Block activities reported as "AB50 's" (mg./kg.).

[3] = tested on: apomorphine-induced stereotyped behavior and climbing; experiment: Antagonism of apomorphine-induced stereotyped behavior and climbing; format: in vivo, mouse (CF-1, Charles River); conditions: apomorphine 1 mg/kg s.c.; for ED50: Mus musculus, po; for Apomorphine Antagonism, Stereotypy ED50: p.o.
Protocol: Readings are repeated every five minutes during a thirty minute test session. […] The ratio of the ED50 for stereotyped behavior of the ED50 for climbing is calculated.

[4] = molecular target: T2, 5-HT1A serotonin receptor (Rattus norvegicus, UniProt P19327); experiment: Inhibition of [^3 H] 8-OH DPAT binding
T2 construct: from tissue
T2 sequence (P19327 1-422): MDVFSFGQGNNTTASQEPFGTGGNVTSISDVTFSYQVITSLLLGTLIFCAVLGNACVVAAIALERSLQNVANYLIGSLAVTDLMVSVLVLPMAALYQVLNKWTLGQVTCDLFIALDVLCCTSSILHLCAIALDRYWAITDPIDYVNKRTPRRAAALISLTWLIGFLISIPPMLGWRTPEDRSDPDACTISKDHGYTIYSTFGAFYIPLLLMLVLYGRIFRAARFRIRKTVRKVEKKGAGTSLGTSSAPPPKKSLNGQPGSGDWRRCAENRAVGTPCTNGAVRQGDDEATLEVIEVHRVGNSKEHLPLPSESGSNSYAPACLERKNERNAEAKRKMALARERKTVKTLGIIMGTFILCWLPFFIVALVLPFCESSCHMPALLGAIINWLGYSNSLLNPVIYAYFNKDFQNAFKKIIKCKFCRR
Description: 8-OH DPAT (dipropylaminotetralin) from the 5-HT1A serotonin receptor by the procedure of Hall et al., J. Neurochem.

[5] = tested on: conditioned avoidance responding; experiment: Conditioned avoidance, shelf-jump response; format: in vivo, rat (male CD, Charles River); conditions: Rattus norvegicus, ip; single dose 40 mg/kg
Description: as §1

[6] = read-out: Apomorphine Antagonism, Climbing ED50
[7] = read-out: Apomorphine Antagonism, Stereotypy ED50

T1 sequence (P61169 whole entry): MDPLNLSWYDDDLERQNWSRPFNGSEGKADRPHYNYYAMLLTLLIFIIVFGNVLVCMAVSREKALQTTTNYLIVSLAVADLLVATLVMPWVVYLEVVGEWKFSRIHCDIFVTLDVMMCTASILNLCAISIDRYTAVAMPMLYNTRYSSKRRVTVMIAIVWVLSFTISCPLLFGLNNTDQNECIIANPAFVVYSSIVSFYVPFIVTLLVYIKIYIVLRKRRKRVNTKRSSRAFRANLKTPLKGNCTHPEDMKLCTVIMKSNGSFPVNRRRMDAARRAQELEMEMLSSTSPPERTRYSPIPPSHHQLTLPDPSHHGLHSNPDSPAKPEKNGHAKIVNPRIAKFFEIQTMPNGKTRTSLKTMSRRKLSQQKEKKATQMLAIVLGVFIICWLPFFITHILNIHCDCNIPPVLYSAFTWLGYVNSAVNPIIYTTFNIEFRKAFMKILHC

Row | inhibition at 1 µM [1] | Ki [4] | SMILES | ED50 ([2]; Rattus norvegicus, po, read-out: Conditioned Avoidance, Discrete Trial AB50) | ED50 [3, 6] | ED50 [3, 7] | inhibition in vivo at 40 mg/kg [5] | Conditioned Avoidance, Discrete Trial AB50 [2] | Apomorphine Antagonism, Stereotypy ED50 [3]
1 | 97% | 0.015 µM | O=C1C2CCCC(O2)C(=O)N1CCCCN1CCN(c2cccc(C(F)(F)F)c2)CC1 [Example 19, 3-[4-[4-[3-(Trifluoromethyl)phenyl]-1-piperazinyl]butyl]-9-oxa-3-azabicyclo[3.3.1]nonane-2,4-dione] | 27 mg/kg | 9.06 mg/kg | 31 mg/kg | ~80% | – | –
2 | 53% | 0.016 µM | CC1(C)C2CCC1C(=O)N(CCCCN1CCN(c3ncccn3)CC1)C2=O [Example 20, 3-[4-[4-(2-Pyrimidinyl)-1-piperazinyl]butyl]-8,8-dimethyl-3-azabicyclo[3.2.1]octane-2,4-dione] | – | 0.2 mg/kg | – | > 20% | inactive | inactive
3 | 63% | 0.015 µM | O=C1C2CC=CCC(C2)C(=O)N1CCCCN1CCN(c2ncccn2)CC1 [Example 21, 8-[4-[4-(2-Pyrimidinyl)-1-piperazinyl]butyl]-8-azabicyclo[4.3.1]dec-3-ene-7,9-dione] | – | 11.1 mg/kg | – | > 20% | inactive | inactive
4 | 38% | 0.004 µM | O=C1C2CCC(C2)C(=O)N1CCCN1CCN(c2cccc(C(F)(F)F)c2)CC1 [Example 22, 3-[3-[4-[3-(Trifluoromethyl)phenyl]-1-piperazinyl]propyl]-3-azabicyclo[3.2.1]octane-2,4-dione] | – | 29.5 mg/kg | 43.3 mg/kg | ~80% | weak | –
